This note sets out measurements from publication PMC6268373, “Systematic Study of the Physicochemical Properties of a Homologous Series of Aminobisphosphonates” (Molecules, 2012).

Values after ≈ are worked out from the molar mass of the structure shown.

A short description of series [1]: Aqueous solubility of saturated solution at 21 °C (phosphorus determination by molybdenum blue spectrophotometry). The following applies: for solubility at 30 min: Milli-Q water, unbuffered, thermodynamic from solid; for solubility at 30 min / pH of saturated solution: 21 °C; for pH of saturated solution: saturated aqueous solution, agitation time 30 min.
Experimental: (§1) A Jasco V-530 UV/Vis spectrophotometer was used for phosphorus determination at 880 nm wavelength. Filtered liquid samples were diluted to the appropriate volume with Milli-Q water and were digested with the persulphate oxidation technique in acidic medium at elevated temperature to convert aminobisphosponates to orthophosphate. In an acidic medium, ammonium molybdate and antimony potassium tartrate react with orthophosphate to form a phosphomolybdic acid that is reduced to intensively colored molybdenum blue by ascorbic acid [30].
(§2) The mixture containing an excess of the studied compound was first agitated for predetermined time with magnetic stirrer and before taking the sample mixture was allowed to stand for 24 h without stirring. The sample (about 5 mL) was taken from liquid above the solids, pH was measured and the sample was filtered through 0.2 µm membrane filter to remove any possible insoluble particles. The phosphorus concentration in the filtered sample solution was determined by using the spectrophotometric method described above.
Series [2] is described as follows: Effect of pH on aqueous solubility. Particulars: for solubility at 30 min: water, pH adjusted with NaOH or HCl, 21 °C, thermodynamic from solid; for pH of solubility minimum: pH range 0.5 to 11.0.
Experimental: as §1, §2
Series [3] in a line: Thermal analysis (TG/DTA and TGA 7). It is filed as physicochemical. The following applies: for Td: 5 °C/min; for Temp. range of 1st cleavage: lower limit taken at 0.5 wt-%; for Temp. range of dehydration / onset T of dehydration / Td (decomposition onset): heating rate 5 °C/min; for Td (decomposition onset): average from both instruments. As to the method: Thermal decomposition paths with evaluation of crystal water content were obtained parallel with two instruments; Perkin Elmer STA 6000 thermogravimetric TG/DTA and Perkin Elmer TGA 7 analyzers (Perkin Elmer, Massachusetts, USA). Measurements were carried out in an open platinum crucible (the higher 5 mm crucible was used in TG/DTA and a shallower 2 mm crucible in TGA 7) under air atmosphere (flow rate of 45 mL/min) with a heating rate of 5 °C/min over the temperature range of 25−700 °C. The temperature calibration of STA 6000 was made using melting points of indium (156.60 °C) and zinc (419.5 °C) standards. For TGA 7 magnetic Curie-point calibration technique (Alumel, Ni, Perkalloy, Fe) was used. The weight balance of both instruments was calibrated by measuring a standard weight of 50 mg at room temperature. The sample weights used in the measurements were about 4–8 mg, and for each bisphosphonate, it was attempted to keep the same on both instruments. The melting/dehydration/decomposition behavior of the compounds was also visually monitored using a Stuart Scientific SMP3 melting point apparatus.

As usually defined, the solubility is the dissolved amount per volume that the medium holds. A higher solubility goes with a readily soluble substance. As to `NCCCCCCCCC(O)(P(=O)(O)O)P(=O)(O)O` [Compound 6, (9-Amino-1-hydroxynonylidene)bisphosphonic acid], the solubility at 30 min worked out at 2070 µg/mL (≈ 6470 µM) in series [1] (water); 2100 µg/mL (≈ 6580 µM) in series [2] (pH 0, aqueous buffer); 1150 µg/mL (≈ 3600 µM) in series [2] (pH 1, aqueous buffer); 860 µg/mL (≈ 2690 µM) in series [2] (pH 2, aqueous buffer); 1170 µg/mL (≈ 3670 µM) in series [2] (pH 3, aqueous buffer); 1080 µg/mL (≈ 3380 µM) in series [2] (pH 4, aqueous buffer). Besides, the solubility at 30 min in series [2] (pH 5, aqueous buffer) is 1110 µg/mL (≈ 3480 µM); in series [2] (pH 6, aqueous buffer) it was 1230 µg/mL (≈ 3850 µM); in series [2] (pH 7, aqueous buffer) it was 1190 µg/mL (≈ 3730 µM); in series [2] (pH 8, aqueous buffer) it was 1230 µg/mL (≈ 3850 µM); in series [2] (pH 9, aqueous buffer), 1190 µg/mL (≈ 3730 µM); in series [2] (pH 10, aqueous buffer), 1200 µg/mL (≈ 3760 µM). Besides, in series [2] (pH 11, aqueous buffer), the solubility at 30 min came out at 1270 µg/mL (≈ 3980 µM). In series [1], the “pH of saturated solution” value came to 2.51. Besides, the “Onset temperature of first cleavage” value in series [3] (TG/DTA, higher crucible) stood at 77 °C; in series [3] (TGA 7, shallow crucible), 84 °C. In addition, the Td in series [3] (TG/DTA, higher crucible, air) stood at 190 °C; in series [3] (TGA 7, shallow crucible, air), 191 °C. For the same compound, the “Temp. range of 1st cleavage” value in series [3] (TG/DTA, higher crucible) was 33–175 °C; in series [3] (TGA 7, shallow crucible), 33–173 °C. The “Temp. range of dehydration” value in series [3] (air) was 33–175 °C. Moreover, in series [3] (air), the “onset T of dehydration” value was 81 °C. In addition, in series [3] (air), the “Td (decomposition onset)” value was 191 °C. For the same compound, the “temperature at which dehydration is initiated” value in series [3] (thermogravimetry, air) is ~ 90 °C.
For the compound `NCCCCCCCCCC(O)(P(=O)(O)O)P(=O)(O)O` [Compound 7, (10-Amino-1-hydroxydecylidene)bisphosphonic acid], in series [1] (water), the concentration in solution (solubility at 30 min) came to 217 µg/mL (≈ 651 µM) and the “water solubility (in words)” value was “hundreds of milligrams”. For the same compound, in series [1], the “pH of saturated solution” value is listed as 3.28. For the same compound, in series [3] (TG/DTA, higher crucible), the “Onset temperature of first cleavage” value turned out to be 185 °C and the “Temp. range of 1st cleavage” value is 175–211 °C. In series [3] (TG/DTA, higher crucible, air), this compound registered a Td of 185 °C. Moreover, in series [3] (TGA 7, shallow crucible), the “Onset temperature of first cleavage” value was 189 °C and the “Temp. range of 1st cleavage” value was 161–227 °C. In series [3] (TGA 7, shallow crucible, air), this compound registered a Td of 189 °C. The “Td (decomposition onset)” value in series [3] (air) was determined as 187 °C. Moreover, in series [3] (thermogravimetry, air), the “temperature of first decomposition step (cleavage of amino group / degradation)” value is “about 200 °C”.
Regarding `NCCCCCCCCCCC(O)(P(=O)(O)O)P(=O)(O)O` [Compound 8, (11-Amino-1-hydroxyundecylidene)bisphosphonic acid], the solubility at 30 min was determined as 58 µg/mL (≈ 167 µM) in series [1] (water); 180 µg/mL (≈ 518 µM) in series [2] (pH 0, aqueous buffer); 80 µg/mL (≈ 230 µM) in series [2] (pH 1, aqueous buffer); 50 µg/mL (≈ 144 µM) in series [2] (pH 2, aqueous buffer); 80 µg/mL (≈ 230 µM) in series [2] (pH 3, aqueous buffer); 180 µg/mL (≈ 518 µM) in series [2] (pH 4, aqueous buffer). For the same compound, the solubility at 30 min in series [2] (pH 5, aqueous buffer) is 230 µg/mL (≈ 662 µM); in series [2] (pH 6, aqueous buffer), 270 µg/mL (≈ 777 µM); in series [2] (pH 7, aqueous buffer), 290 µg/mL (≈ 835 µM); in series [2] (pH 8, aqueous buffer), 250 µg/mL (≈ 720 µM); in series [2] (pH 9, aqueous buffer), 290 µg/mL (≈ 835 µM); in series [2] (pH 10, aqueous buffer) it was 400 µg/mL (≈ 1150 µM). The solubility at 30 min in series [2] (pH 11, aqueous buffer) stood at 370 µg/mL (≈ 1070 µM). In series [1], the “pH of saturated solution” value worked out at 4.71. Besides, the “pH of solubility minimum” value in series [2] is approximately 2. In addition, the “Onset temperature of first cleavage” value was found to be 73 °C in series [3] (TG/DTA, higher crucible) and 70 °C in series [3] (TGA 7, shallow crucible). Moreover, the Td in series [3] (TG/DTA, higher crucible, air) came out at 199 °C; in series [3] (TGA 7, shallow crucible, air), 204 °C. Moreover, the “Temp. range of 1st cleavage” value in series [3] (TG/DTA, higher crucible) is 50–146 °C; in series [3] (TGA 7, shallow crucible), 39–149 °C. In series [3] (air), the “Temp. range of dehydration” value is 40–148 °C. In series [3] (air), the “onset T of dehydration” value was determined as 72 °C. For the same compound, the “Td (decomposition onset)” value in series [3] (air) stood at 202 °C. Moreover, the “temperature of first decomposition step (cleavage of amino group / degradation)” value in series [3] (thermogravimetry, air) was determined as 200 °C.
For `NCCCCCCCCCCCC(O)(P(=O)(O)O)P(=O)(O)O` [Compound 9, (12-Amino-1-hydroxydodecylidene)bisphosphonic acid], the solubility at 30 min in series [1] (water) was found to be 30 µg/mL (≈ 83 µM); in series [2] (pH 0, aqueous buffer) it was 130 µg/mL (≈ 360 µM); in series [2] (pH 1, aqueous buffer) it was 80 µg/mL (≈ 221 µM); in series [2] (pH 2, aqueous buffer), 70 µg/mL (≈ 194 µM); in series [2] (pH 3, aqueous buffer), 80 µg/mL (≈ 221 µM); in series [2] (pH 4, aqueous buffer) it was 140 µg/mL (≈ 387 µM). In addition, the solubility at 30 min in series [2] (pH 5, aqueous buffer) was found to be 200 µg/mL (≈ 554 µM); in series [2] (pH 6, aqueous buffer) it was 210 µg/mL (≈ 581 µM); in series [2] (pH 7, aqueous buffer), 200 µg/mL (≈ 554 µM); in series [2] (pH 8, aqueous buffer) it was 240 µg/mL (≈ 664 µM); in series [2] (pH 9, aqueous buffer) it was 250 µg/mL (≈ 692 µM); in series [2] (pH 10, aqueous buffer), 400 µg/mL (≈ 1110 µM). In addition, the solubility at 30 min in series [2] (pH 11, aqueous buffer) was 470 µg/mL (≈ 1300 µM). In series [1], the “pH of saturated solution” value is 4.05. The “pH of solubility minimum” value in series [2] is given as approximately 2. Also, the “Onset temperature of first cleavage” value in series [3] (TG/DTA, higher crucible) was found to be 185 °C; in series [3] (TGA 7, shallow crucible), 191 °C. In addition, the Td amounted to 185 °C in series [3] (TG/DTA, higher crucible, air) and 191 °C in series [3] (TGA 7, shallow crucible, air). Moreover, the “Temp. range of 1st cleavage” value in series [3] (TG/DTA, higher crucible) was 163–232 °C; in series [3] (TGA 7, shallow crucible) it was 155–221 °C. The “Td (decomposition onset)” value in series [3] (air) stood at 188 °C. Further, the “temperature of first decomposition step (cleavage of amino group / degradation)” value in series [3] (thermogravimetry, air) is “about 200 °C”.
For `NCCCCCCCCCCCCCCCC(O)(P(=O)(O)O)P(=O)(O)O` [Compound 10, (16-Amino-1-hydroxyhexadecylidene)bisphosphonic acid], the concentration in solution in series [1] (water) (solubility at 30 min) came to 39 µg/mL (≈ 93.4 µM). Moreover, the “pH of saturated solution” value in series [1] turned out to be 7.79. In addition, the “Onset temperature of first cleavage” value in series [3] (TG/DTA, higher crucible) is 178 °C; in series [3] (TGA 7, shallow crucible), 181 °C. Moreover, the Td in series [3] (TG/DTA, higher crucible, air) was found to be 178 °C; in series [3] (TGA 7, shallow crucible, air) it was 181 °C. For the same compound, the “Temp. range of 1st cleavage” value in series [3] (TG/DTA, higher crucible) was 150–248 °C; in series [3] (TGA 7, shallow crucible), 146–245 °C. Besides, the “Td (decomposition onset)” value in series [3] (air) is 180 °C. In series [3] (thermogravimetry, air), the “temperature of first decomposition step (cleavage of amino group / degradation)” value is “about 200 °C”.
